Laboratory results as given in patent US5792635A, “Method of inhibiting the sodium/proton exchanger NHE3 and method of inhibiting growth by administering squalamine” (priority 1995, dated 1998).
Entries after “also recorded” stand apart in the source; their conditions may differ.

Experiments:
[1] = Effect on arterial resistance in the rat after i.v. administration; type: in vivo
Procedure: A 200-g rat was catheterized in the right carotid artery, and the compound was introduced over a ten-second period to a total dosage of 5 mg/kg. Within 30 seconds, the mean arterial pressure had fallen from about 100 mm Hg to about 70 mm Hg, with a marked reduction in pulse pressure from about 40 mm to about 10 mm. […] If cardiac output was basically unaffected, reduction in blood pressure would have resulted principally from a reduction in system resistance.
At that time, 40 μg of noradrenaline was introduced.

[2] = system: B16 melanoma; experiment: Synergistic inhibition of tumor growth, B16 melanoma in mice; type: in vivo, mouse; settings: squalamine 15 mg/kg/day; compound 1436 tolerable schedule
Procedure: Based on the idea that tumor growth involves both the clonal expansion of a malignant cell along with the development of a supporting vascular supply, a combination of compound 1436 with squalamine was tested to determine whether it would achieve a synergistic effect on solid tumor growth. This concept was evaluated in the B16 melanoma model.
Animals were implanted with B16 melanoma followed by treatment with compound 1436 or 1256 administered in a combined schedule or separately. […] Thus, a combination of these two compounds achieves a therapeutic benefit in tumors dependent on neovascularization that may prevent metastatic spread.

[3] = system: Human ovarian carcinoma SKOV3; experiment: Cancer cells inhibited in vitro; type: cell-based; settings: 10 μg/ml
Procedure: (§1) As set forth in Table 7 below, all malignant tumors evaluated in tissue culture, endothelial cells and vascular smooth muscle cells were sensitive to inhibition. Thus, compound 1436 has application in the control of growth factor dependent proliferation of many types of tissue.
Using the assay described above, the anticancer effects of compound 1437 against several cancer lines was assessed.

[4] = system: human coronary artery smooth muscle; experiment: Proliferation of human coronary artery smooth muscle in vitro; type: cell-based; settings: FIG. 15
Text: Aminosterols of the invention may also have utility in inhibiting the growth factor mediated proliferation of smooth muscle within the artery. Following coronary angioplasty, reocclusion commonly occurs, secondary to reparative proliferation of the vascular smooth muscle within the wall of the surgically manipulated blood vessel. This process generally takes place over the course of 7-10 days. To evaluate whether an agent could prevent the growth factor mediated proliferation of smooth muscle within the artery, compound 1436 was evaluated in vitro for its effect on the proliferation of human coronary artery smooth muscle. Results for compound 1436 are shown in FIG. 13, and those for squalamine are shown in FIG. 14, with FIG. 15 being a composite logarithmic plot.

[5] = system: bovine pulmonary endothelial cells; experiment: Non-transformed cells inhibited in vitro; type: cell-based; settings: 10 μg/ml
Text: as §1

[6] = system: Human coronary artery smooth muscle cells; experiment: Non-transformed cells inhibited in vitro; type: cell-based; settings: 10 μg/ml
Text: as §1

[7] = system: Human microvascular endothelial cells; experiment: Non-transformed cells inhibited in vitro; type: cell-based; settings: 10 μg/ml
Text: as §1

[8] = system: human umbilical venous endothelial cells; experiment: Non-transformed cells inhibited in vitro; type: cell-based; settings: 10 μg/ml
Text: as §1

[9] = system: Murine B16 melanoma; experiment: Cancer cells inhibited in vitro; type: cell-based; settings: 10 μg/ml
Text: as §1

[10] = system: Murine L1210 leukemia; experiment: Cancer cells inhibited in vitro; type: cell-based; settings: 10 μg/ml
Text: as §1

[11] = system: Human colon carcinoma SW948; experiment: Cancer cells inhibited in vitro; type: cell-based; settings: 10 μg/ml
Text: as §1

[12] = system: Human melanoma WM 1617; experiment: Cancer cells inhibited in vitro; type: cell-based; settings: 10 μg/ml
Text: as §1

[13] = system: Lewis lung carcinoma; experiment: Cancer cells inhibited in vitro; type: cell-based; settings: 10 μg/ml
Text: as §1

[14] = system: Human colon carcinoma HT29; experiment: Cancer cells inhibited in vitro; type: cell-based; settings: 10 μg/ml
Text: as §1

[15] = system: L1210 lymphoblastic leukemia cells; experiment: Mouse model of leukemia (L1210), survival and hematological profile; settings: highest dose (10 mg/kg every 3 days i.p.); FIG. 11
Text: C57B mice were inoculated with L1210 lymphoblastic leukemia cells at an inoculum that causes leukemia in 100% of animals.

[16] = Effect on fasting blood glucose in mice; type: in vivo, mouse (CD-1); settings: intravenous; 1436 in D5W, 1437 in water
Procedure: To study the effect of steroid administrator or the NHE responsible for secretion of insulin, several of the aminosterols from shark liver were administered to fasting mice. Male CD-1 mice were assigned to one of four treatment groups. Whole blood glucose was tested using glucometer (Lifescan Glucometer II and One Touch test strips). Statistical analysis was via one-way analysis of variance (ANOVA) followed by subsequent Bonferonni's t-test.

[17] = Effect on growth and weight gain of growing mice; type: in vivo, mouse (C57B)
Procedure: Animals were dosed QTD (i.p.) starting on Day 1. […] Animals receiving 5 mg/kg QTD experienced about a 50% reduction in growth, compared to untreated controls, while animals receiving 1 mg/kg QTD were affected by about 10%. […] They appeared very much like hypophysectamized animals might appear.

[18] = system: Xenopus tadpoles; experiment: Tadpole assay
[19] = system: vitelline capillaries of 3- to 5-day chick embryo; experiment: Chick embryo vitelline capillary regression assay; type: in vivo; settings: chick embryo capillary bed
Procedure: Using the chick embryo vitelline capillaries assay, compounds were tested for their ability to induce capillary regression. Each compound was applied in 0.1 ml of 15% Ficol 400 and PBS onto the embryo, and vascular regression was assessed after 60 minutes.
The 3-day chick embryo consists of an embryonic disc from which numerous vessels emerge and return, forming a "figure 8"-shaped structure--the embryo in the center with vascular loops extending outward over both poles. […] Following a lag period of around 15 minutes, the constriction of continuity between capillary and secondary vessels, generally on the "venous" side, was observed. Continued pulsatile blood flow progressed, resulting in a "swelling" of the blind tube, followed by a pinching off of the remaining connection and formation of an enclosed vascular sac resembling a "blood island." This process progressed until only the largest vessels remained intact.

[20] = system: human T-cells; experiment: Inhibition of PHA-stimulated human lymphocytes; type: cell-based; settings: Homo sapiens, T-cell; 10 μg/ml; read-out: inhibition of blast transformation
Text: Results are tabulated below.

[21] = system: LLC; experiment: LLC MTT assay (Table II); type: cell-based; settings: Lewis lung carcinoma, read-out: Minimum Effective Concentration, LLC MTT
[22] = system: NHE5; experiment: NHE isoform selectivity inferred from tadpole and chick embryo assays
[23] = system: human melanoma; experiment: Effect on growth of human melanoma, time course (FIG. 17); type: cell-based

CC(C)[C@@H](CC[C@@H](C)[C@H]1CC[C@H]2[C@@H]3[C@H](O)C[C@H]4C[C@@H](NCCCNCCCCNCCCN)CC[C@]4(C)[C@H]3CC[C@]12C)OS(=O)(=O)O [Compound 1436]
reversibility by noradrenaline ([1]; 40 μg noradrenaline at 30 minutes): readily reversible by standard pharmacological practice
duration of blood pressure effect followed without significant change ([1]; 5 mg/kg i.v.): 30 min
effect of single agent versus combination [2]: Neither administration of squalamine at 15 mg/kg/day nor compound 1436 alone in a tolerable schedule could achieve this effect
inhibited in vitro [3]: INHIBITED
suppression of growth of human coronary artery smooth muscle [4]: suppress in vitro the growth of human coronary artery smooth muscle
inhibited in vitro [5]: INHIBITED
inhibited in vitro [6]: INHIBITED
inhibited in vitro [7]: INHIBITED
inhibited in vitro [8]: INHIBITED
inhibited in vitro [9]: INHIBITED
inhibited in vitro [10]: INHIBITED
inhibited in vitro [11]: INHIBITED
inhibited in vitro [12]: INHIBITED
inhibited in vitro [13]: INHIBITED
inhibited in vitro [14]: INHIBITED
survival in L1210 leukemia mice [15]: significant prolongation of life
hyperglycemic response [16]: caused hyperglycemia in mice
growth inhibition of mice ([17]; 10 mg/kg QTD i.p., after 6 doses, about 1 month): almost completely inhibited
apparent health ([17]; C57B mice, 1-10 mg/kg QTD i.p.): all were active, normally proportioned, not-cachectic, and in excellent apparent clinical health
suppression of linear growth and weight gain ([17]; normal growing mice, i.p.): suppresses both linear growth and weight gain in growing mice in a dose-dependent fashion
death / lethality time ([18]; 10 μg/ml): about 2 hours
observed response in tadpole ([18]; 10 μg/ml, stage 59-60 Xenopus): common vascular occlusive effect; also recorded: Gradual reduction in overall activity. Heart beat remained strong, suggesting nervous system depression; also recorded: Melanocytes over head and tail began to swell, first exhibiting visibly distinct nuclei, followed by rupture into fragments; also recorded: dramatic disruption of melanocytes over its head, trunk, and tail, along with depression of its nervous system; also recorded: No effects are observed on epithelial cell integrity, vascular flow, erythrocyte volume, tissue integrity, muscle fiber striation, or GI tract activity
vitelline capillary regression, potency in words [19]: about the same potency as squalamine
inhibition at 10 µg/mL [20]: > 75%

CC(C)CCC[C@@H](C)[C@H]1CC[C@H]2[C@@H]3CC[C@H]4C[C@@H](NCCCNCCCCNCCCN)CC[C@]4(C)[C@H]3CC[C@]12C [Compound 353]
minimal effective concentration [21]: 1.9 µg/mL
NHE5 versus NHE3 selectivity [22]: inhibits NHE5 to a greater extent than NHE3
functional similarity in tadpole assay ([18]; Xenopus tadpole assay): effects like those produced by compound 1436
vitelline capillary regression, potency in words [19]: no effect on the chick embryo capillary bed
effect on melanoma growth, time dependence ([23]; FIG. 17A, less effect within first 12 hours): most pronounced over 48 hours
mode of cell death ([23]; cells exposed to compound 353): apoptotic cell death has been induced
